Molecules are shown by their SMILES.

The target of this assay is Glycogen synthase kinase-3 beta (Homo sapiens, UniProt P49841). In words: concentration-response blocking of human GSK3B – biochemical, luminescence, cell-free homogeneous, retest, dose response (AID 434954).
Glycogen synthase kinase-3 beta, sequence (P49841 whole entry): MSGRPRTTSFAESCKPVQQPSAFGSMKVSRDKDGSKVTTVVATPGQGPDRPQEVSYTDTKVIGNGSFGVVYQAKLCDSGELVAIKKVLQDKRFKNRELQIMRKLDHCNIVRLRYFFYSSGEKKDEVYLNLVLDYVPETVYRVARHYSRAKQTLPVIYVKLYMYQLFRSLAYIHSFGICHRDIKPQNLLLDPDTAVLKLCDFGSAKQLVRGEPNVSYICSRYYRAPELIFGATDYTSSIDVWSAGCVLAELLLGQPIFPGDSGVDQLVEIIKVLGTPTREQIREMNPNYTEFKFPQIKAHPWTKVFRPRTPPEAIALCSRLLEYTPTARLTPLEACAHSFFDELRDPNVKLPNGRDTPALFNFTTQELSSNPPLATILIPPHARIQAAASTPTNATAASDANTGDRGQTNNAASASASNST
As usually defined, the EC50 is the concentration that produces a half-maximal response. In the case of `COc1c(CC=C(C)C)cc(C2CC(=O)c3c(O)cc(O)cc3O2)c(CC=C(C)C)c1O` (stereo not drawn) [5,7-dihydroxy-2-[3-hydroxy-4-methoxy-2,5-bis(3-methylbut-2-enyl)phenyl]-2,3-dihydrochromen-4-one], the 50% effective concentration (EC50) was greater than 300 µM.

`CCc1ccc(CNC(=O)C2CCC(=O)N(CCc3ccc(Cl)cc3)C2)nc1` (stereo not drawn) [1-[2-(4-chlorophenyl)ethyl]-N-[(5-ethyl-2-pyridinyl)methyl]-6-oxo-3-piperidinecarboxamide] gave an EC50 greater than 300 µM.

In turn, `COc1cccc2cc(C(=O)NCc3ccccc3Br)c(=O)oc12` [N-[(2-bromophenyl)methyl]-8-methoxy-2-oxo-1-benzopyran-3-carboxamide] had an EC50 greater than 300 µM. The same measure for `Cc1onc(-c2ccccc2)c1C(=O)n1cccn1`: greater than 300 µM; for `CCOC(=O)N1CCC(NC(=O)c2cc3sccc3n2CC)CC1` [MLS000093129]: greater than 300 µM; for `O=C(Nc1nc2ccc(Cl)cc2s1)C1CC1` [N-(6-chloranyl-1,3-benzothiazol-2-yl)cyclopropanecarboxamide]: 43.8 µM.

Turning to `CN(C)Cc1c(C(=O)NN=Cc2ccccc2OCc2c(F)cccc2Cl)nnn1-c1nonc1N` [1-(4-azanyl-1,2,5-oxadiazol-3-yl)-N-[[2-[(2-chloranyl-6-fluoranyl-phenyl)methoxy]phenyl]methylideneamino]-5-[(dimethylamino)methyl]-1,2,3-triazole-4-carboxamide], the EC50 stood at 0.116 µM. In turn, `COc1ccc(OC)c(C(=O)c2coc3ccc(OC(C)=O)cc23)c1` [3-(2,5-dimethoxybenzoyl)-1-benzofuran-5-yl acetate] displayed an EC50 greater than 300 µM. `COc1ccc(OC)c(NCc2nnc(-c3ccccc3)o2)c1` [MLS001208999] had a concentration for a half-maximal effect (EC50) greater than 300 µM. The same measure for `O=C(CS(=O)(=O)c1ccccc1)Nc1ncc([N+](=O)[O-])s1` [2-(benzenesulfonyl)-N-(5-nitro-1,3-thiazol-2-yl)acetamide]: greater than 300 µM; for `O=C(NCC1COc2ccccc2O1)c1ccccc1` (stereo not drawn) [SMR000069822]: greater than 300 µM. Regarding `O=C(Nc1ccc(-c2nc3ccccc3o2)cc1)c1ccc(N2CCOCC2)c([N+](=O)[O-])c1` [SMR000201361], the EC50 was greater than 300 µM. To `Nc1nonc1-n1nnc(C(=O)N/N=C/c2ccncc2)c1CN1CCCCC1` belongs 0.181 µM; to `Cc1ccc(NC(=O)Nc2cc(-c3ccccc3)nn2C)cc1Cl` [N-(3-chloro-4-methylphenyl)-N'-(1-methyl-3-phenyl-1H-pyrazol-5-yl)urea], greater than 300 µM. `COc1cc(OC)cc(C(=O)NCC2CCCN(C(=O)c3csc(C)n3)C2)c1` (stereo not drawn) [MLS001072180] registered a 50% effective concentration (EC50) greater than 300 µM. `Nc1ncnc(NC2CCS(=O)(=O)C2)c1[N+](=O)[O-]` (stereo not drawn) [4-N-(1,1-dioxothiolan-3-yl)-5-nitropyrimidine-4,6-diamine] came in with an EC50 greater than 300 µM.

Take `COCCn1c(SCC(=O)Nc2ccc(Cl)cn2)nc2ccccc21` [N-(5-chloropyridin-2-yl)-2-[1-(2-methoxyethyl)benzimidazol-2-yl]sulfanylacetamide]: a half-maximal effect (EC50) was put at 3.82 µM.

In the case of `COc1ccc(-c2nn(-c3ccccc3)cc2C=NNS(=O)(=O)c2ccccc2)cc1`, the EC50 is greater than 300 µM. The same measure for `Cc1ccc(C(=O)c2coc3ccc(O)cc23)cc1` [SMR000539213]: 11.2 µM.

In the case of `CCc1nn(CC(=O)NCCN2CCOCC2)c(=O)c2cc3c(OC)cccc3n12` [2-(4-ethyl-9-methoxy-1-oxidanylidene-[1,2,4]triazino[4,5-a]indol-2-yl)-N-(2-morpholin-4-ylethyl)ethanamide], the EC50 was greater than 300 µM. `COc1cc(C(=O)NC(=S)N(CCc2ccccc2)CCc2ccccc2)cc(OC)c1OC` [N-[bis(2-phenylethyl)carbamothioyl]-3,4,5-trimethoxybenzamide] showed an EC50 greater than 300 µM.

Regarding `CCOc1ccc2c(c1)C(=O)C(=O)N2CC1COc2ccccc2O1` (stereo not drawn) [1-(2,3-dihydro-1,4-benzodioxin-3-ylmethyl)-5-ethoxy-indole-2,3-dione], the EC50 was greater than 300 µM. The same measure for `COCCOC(=O)C(C#N)c1nc2ccccc2nc1N1CCN(Cc2ccccc2)CC1` (stereo not drawn) [MLS000078656]: greater than 300 µM.

As to `O=C(Nc1ncc([N+](=O)[O-])s1)c1ccco1` [N-(5-nitro-2-thiazolyl)-2-furancarboxamide], the EC50 is greater than 300 µM. The same measure for `CCOC(=O)c1nnn(-c2nonc2N)c1CN(CC)CC` [ethyl 1-(4-amino-1,2,5-oxadiazol-3-yl)-5-(diethylaminomethyl)triazole-4-carboxylate]: greater than 300 µM; for `CCOC(=O)/C(C#N)=C/c1cn(CCC(=O)O)nc1-c1ccccc1` [3-[4-[(E)-2-cyano-3-ethoxy-3-oxoprop-1-enyl]-3-phenyl-1-pyrazolyl]propanoic acid]: greater than 300 µM. As for `COC(=O)C1=C(C)N(CCc2cc(OC)c(OC)c(OC)c2)C(=O)N[C@H]1c1ccccc1` [methyl (6S)-4-methyl-2-oxo-6-phenyl-3-[2-(3,4,5-trimethoxyphenyl)ethyl]-1,6-dihydropyrimidine-5-carboxylate], the EC50 was greater than 300 µM. Take `CCCn1nc(NC(=O)C(C)C)c2cc3cc(OC)ccc3nc21` [N-(6-methoxy-1-propylpyrazolo[3,4-b]quinolin-3-yl)-2-methylpropanamide]: the EC50 is greater than 300 µM.

`Cn1ncnc2c(=O)n(C)c(=O)nc1-2` registered an EC50 of 62.7 µM. To `COC(=O)C1=C(C)N(CCCC(=O)O)C(=O)NC1c1ccc([N+](=O)[O-])cc1` (stereo not drawn) [MLS000562939] belongs greater than 300 µM. To `COc1ccc(NC(=O)c2sc(S)nc2N)cc1` [4-Amino-2-thioxo-2,3-dihydro-thiazole-5-carboxylic acid (4-methoxy-phenyl)-amide] belongs greater than 300 µM; to `c1ccc(-c2nnc(-c3ccncc3)nc2-c2ccccc2)cc1`, greater than 300 µM; to `CN1CCN(c2cc([N+](=O)[O-])ccc2Cl)CC1`, greater than 300 µM. To `CCCc1cc(=O)[nH]c2nnc(SCC(=O)Nc3nccs3)n12` [2-[(7-oxidanylidene-5-propyl-1H-[1,2,4]triazolo[4,3-a]pyrimidin-3-yl)sulfanyl]-N-(1,3-thiazol-2-yl)ethanamide] belongs greater than 300 µM; to `O=C1CN(c2nc(-c3cccnc3)nc3sc4c(c23)CCCC4)CCN1` [MLS000772211], 24.8 µM; to `Cc1ccc(Nc2nc(-c3ccncc3)nc3ccccc23)cc1` [MLS000769531], greater than 300 µM. `O=C(Nc1ccc(O)c2c(=O)cc(-c3ccccc3Cl)oc12)c1cccs1` [SMR000465219]: the EC50 is 16.7 µM. To `Cc1c(NC(=O)CSc2nnc3sc4ccccc4n23)c(=O)n(-c2ccccc2)n1C` [MLS000060665] belongs greater than 300 µM; to `Cc1ccc(C)c(N2CCN(C(=O)Cn3ncc4c([nH]c5ccc(C)cc54)c3=O)CC2)c1` [3-[2-[4-(2,5-dimethylphenyl)piperazin-1-yl]-2-oxidanylidene-ethyl]-8-methyl-2H-pyridazino[4,5-b]indol-4-one], greater than 300 µM. To `O=C(Cc1ccccc1)Nc1ccc(N2CCOCC2)cc1` [MLS000707957] belongs greater than 300 µM; to `O=[N+]([O-])c1ccc2ccn(C3OCC(O)C(O)C3O)c2c1` (stereo not drawn) [SMR000283162], greater than 300 µM; to `CC(C)Nc1nc(-c2ccncc2)nc(-c2ccccc2)c1C#N` [SMR000549424], greater than 300 µM. The same measure for `O=C(O)c1cc(-c2ccc(CN=Nc3ccc(Cl)cc3)o2)ccc1Cl` [2-chloro-5-{5-[2-(4-chlorophenyl)carbonohydrazonoyl]-2-furyl}benzoic acid]: greater than 300 µM; for `CCn1c(SCc2ccccc2)nnc1-c1cccs1`: greater than 300 µM; for `COc1ccc(C(=O)c2ccsc2N)cc1` [MLS001166080]: greater than 300 µM. Take `COCCNc1nc(N)c([N+](=O)[O-])c(NCC2CCCO2)n1` (stereo not drawn) [MLS000588049]: a half-maximal response (EC50) required 13 µM. To `c1csc(C2=Nn3c(nnc3-c3ccncc3)SC2)c1` belongs 0.735 µM. `Nc1nc(NCCCN2CCOCC2)nc(Nc2ccc(F)cc2)c1[N+](=O)[O-]` [4-N-(4-fluorophenyl)-2-N-(3-morpholin-4-ylpropyl)-5-nitropyrimidine-2,4,6-triamine] showed an EC50 greater than 300 µM.

`COc1ccccc1CNC(=O)OCc1nccnc1C(=O)Nc1ccc(Br)cn1` [[3-[(5-bromopyridin-2-yl)carbamoyl]pyrazin-2-yl]methyl N-[(2-methoxyphenyl)methyl]carbamate] gave an EC50 greater than 300 µM. The same measure for `COc1ccc2c(C)c(CC(=O)N3CCN(C(=O)C4COc5ccccc5O4)CC3)c(=O)oc2c1` (stereo not drawn): greater than 300 µM; for `Cc1ccc(C(=O)NN=Cc2ccc(-c3ccc(Cl)c(Cl)c3)o2)cn1` [SMR000431370]: greater than 300 µM. Molecule `O=C1N=C(NS(=O)(=O)Cc2ccccc2)S/C1=C/c1ccc2c(c1)OCO2` [N-[5-[1-Benzo[1,3]dioxol-5-yl-meth-(E)-ylidene]-4-oxo-thiazolidin-(2E)-ylidene]-C-phenyl-methanesulfon amide] had an EC50 of 18.8 µM. To `CCN(CC)Cc1c(C(=O)OC)nnn1-c1nonc1N` [MLS000085717] belongs greater than 300 µM. To `O=c1cc(NCc2ccccc2)nc2n1CCCS2` [MLS000027636] belongs greater than 300 µM.

In turn, `NS(=O)(=O)c1ccc(CCNC(=O)CSc2nc3ccsc3c(=O)n2C2CC2)cc1` [MLS000586542] registered a half-maximal effective concentration (EC50) greater than 300 µM. As for `CC[n+]1c(/C=C/N(C)c2ccccc2)oc2ccc(Cl)cc21` [SMR000184374], the EC50 is greater than 300 µM. In the case of `CC(C(=O)Nc1cccnc1)n1cc([N+](=O)[O-])cn1` (stereo not drawn) [MLS000729046], the EC50 is greater than 300 µM.

With `O=C(Nc1ccccc1C(=O)N1CCOCC1)C1CCCO1` (stereo not drawn) [SMR000077483], the EC50 is greater than 300 µM.

As for `CSc1nc(SCC(=O)NC(c2ccccc2)c2ccccc2)c2c3c(sc2n1)CN(C)CC3`, the EC50 was greater than 300 µM. For the molecule `c1ccc2c(c1)oc1c(NCCCn3ccnc3)ncnc12`, the EC50 was greater than 300 µM.

`Cc1ccc(-c2nnc(SCc3ccccc3F)o2)cc1` [2-[(2-fluorobenzyl)thio]-5-(4-methylphenyl)-1,3,4-oxadiazole]: the 50% effective concentration (EC50) was greater than 300 µM. Consider `CCOc1ccc(OCC)c(NC(=O)CSc2nnc(C3CC3)n2CC)c1` [MLS001223718], for which the EC50 was greater than 300 µM.

As for `CC(=O)Oc1cc(C)cc2oc(=O)cc(-c3ccccc3)c12`, the EC50 was greater than 300 µM.
